From publication PMC8642396, “Crystal structure of human METTL6, the m^3C methyltransferase” (Communications Biology, 2021)
Changes are numbered by the printed parent chain.

Experiments:
Assay type in all cases: binding
hMETTL6 [1] = biological target: T1, hMETTL6 (Homo sapiens, UniProt Q8TCB7, H61N); test: isothermal titration calorimetry
T1 construct: gene METTL6
T1 sequence (Q8TCB7 1-284 H61N): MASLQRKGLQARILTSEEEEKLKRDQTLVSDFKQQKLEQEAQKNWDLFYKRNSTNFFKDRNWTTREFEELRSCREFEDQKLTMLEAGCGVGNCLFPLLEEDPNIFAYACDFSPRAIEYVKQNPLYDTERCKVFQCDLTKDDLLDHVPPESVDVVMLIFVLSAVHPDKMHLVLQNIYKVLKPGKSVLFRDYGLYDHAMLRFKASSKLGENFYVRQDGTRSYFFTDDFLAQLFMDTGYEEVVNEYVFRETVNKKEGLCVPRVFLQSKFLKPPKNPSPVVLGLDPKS

hMETTL6 [2] = biological target: T2, hMETTL6 (Homo sapiens, UniProt Q8TCB7); test: isothermal titration calorimetry
T2 construct: gene METTL6
T2 sequence (Q8TCB7 1-284): T1 sequence (Q8TCB7 1-284 H61N) with N61H

hMETTL6 [3] = biological target: T3, hMETTL6 (Homo sapiens, UniProt Q8TCB7, Y49F); test: isothermal titration calorimetry
T3 construct: gene METTL6
T3 sequence (Q8TCB7 1-284 Y49F): T1 sequence (Q8TCB7 1-284 H61N) with Y49F, N61H

hMETTL6 [4] = biological target: T4, hMETTL6 (Homo sapiens, UniProt Q8TCB7, F111L); test: isothermal titration calorimetry
T4 construct: gene METTL6
T4 sequence (Q8TCB7 1-284 F111L): T1 sequence (Q8TCB7 1-284 H61N) with N61H, F111L

hMETTL6 [5] = biological target: T5, hMETTL6 (Homo sapiens, UniProt Q8TCB7, C93S); test: isothermal titration calorimetry
T5 construct: gene METTL6
T5 sequence (Q8TCB7 1-284 C93S): T1 sequence (Q8TCB7 1-284 H61N) with N61H, C93S

hMETTL6 [6] = biological target: T6, hMETTL6 (Homo sapiens, UniProt Q8TCB7, D110A); test: isothermal titration calorimetry; conditions: pH 8.0, 150 mM NaCl, 1 mM DTT, 25 °C; mutant partly aggregated, structural integrity disrupted
T6 construct: gene METTL6
T6 sequence (Q8TCB7 1-284 D110A): T1 sequence (Q8TCB7 1-284 H61N) with N61H, D110A

hMETTL6 [7] = biological target: T7, hMETTL6 (Homo sapiens, UniProt Q8TCB7, E85Q); test: isothermal titration calorimetry
T7 construct: gene METTL6
T7 sequence (Q8TCB7 1-284 E85Q): T1 sequence (Q8TCB7 1-284 H61N) with N61H, E85Q

hMETTL6 [8] = biological target: T2, hMETTL6; test: X-ray crystal structure, […] Å; conditions: protein mixed with 2 mM SAH; active site; ammonium sulfate, pH 5.6

SMILES: C[S+](CC[C@H](N)C(=O)O)C[C@H]1O[C@@H](n2cnc3c(N)ncnc32)[C@H](O)[C@@H]1O (some centres unmarked) [SAM]
- Kd (hMETTL6 [1]): 3.11 µM
- Kd (hMETTL6 [2]): ~2.7 µM
- Kd (hMETTL6 [3]): 9.5 µM
- Kd (hMETTL6 [4]): 8.05 µM
- Kd (hMETTL6 [5]): 2.25 µM
- KD (hMETTL6 [6]): the D110A mutation almost eliminated the association capacity of the enzyme
- Kd (hMETTL6 [7]): 87.5 µM

SMILES: Nc1ncnc2c1ncn2[C@@H]1O[C@H](CSCC[C@H](N)C(=O)O)[C@@H](O)[C@H]1O [SAH]
- X-ray crystal structure, 1.9 Å (hMETTL6 [8]): we solved the structure of hMETTL6 in complex with SAH at a high resolution
